# According to patent US20140309295A1, “ANTIEPILEPTIC, HYPOCHOLESTEROLEMIC AND NEUROPROTECTIVE COMPOUND” (NEURON BIOPHARMA, S.A., priority 2009, published 2014):
# Legend:
# [1] = system: human neuroblastoma SK-N-MC cells; experiment: Protection against neuronal death induced by oxidative stress (xanthine/xanthine oxidase), WST-1; format: cell-based
# Method: (§1) The assay was performed on human neuroblastoma SK-N-MC cells in culture from the American Type Culture Collection (ATCC), in all cases strict rules of sterility were followed and the manipulation was performed in class II biological safety cabinets following European standard EN 12469. The cells were maintained in the following culture medium: Minimum Essential Medium Eagle (MEM) supplemented with 1 mM sodium pyruvate, 2 mM L-glutamine, 0.1 mM non-essential amino acids, 0.05 mg/ml gentamicin and 10% fetal bovine serum.
# The inhibition caused by compound NST0037 of cell death caused by treatment with xanthine/xanthine oxidase which generates oxidative damage (causes free radicals such as hydrogen peroxide, superoxide anion, hydroxyl radical), which triggers cell death, was analyzed. These cells, not exceeding 15 passages, were seeded on 96-well plates treated for adherent cells with a cell concentration of 5×10^4 cells/well; 3 wells of the plate were seeded for each condition of the assay.
# After 24 hours of cell incubation at 37° C. and 5% CO2, the cell treatments were performed with 100 μl of total volume for the following conditions: • Control: culture medium (medium) • Xanthine/xanthine oxidase (XXO): medium plus 10 μM xanthine/60 mU/mL xanthine oxidase, causing the death of 50% of the cells. • XXO plus NST0037: medium plus XXO (10 μM/60 mU/mL) plus NST0037 at 1, 4, 10, 20, 40 or 100 μM.
# The cells were incubated (at 37° C. and 5% CO2) with these treatments for 22 hours, after which time the WST-1 reagent (Roche) was added. The Test WST-1 is based on the measurement of metabolic activity. Cell damage causes the loss of the ability of cells to obtain the energy necessary to maintain their metabolic functions and cell growth, therefore the metabolically active (live) cells reduce tetrazolium salt to formazan by means of the succinate-tetrazolium reductase system (of the mitochondrial respiratory chain). The formazan which is formed can be detected colorimetrically since it has an absorbance of 440 nm. The reading was taken in a plate reader at 440 nm 2 hours after adding the reagent.
# The assay was performed on human neuroblastoma SK-N-MC cells in culture from the American Type Culture Collection (ATCC), in all cases strict rules of sterility were followed and the manipulation was performed in class II biological safety cabinets following European standard EN 12469. […]
# The effect of mevalonate on the protection caused by compound NST0037 against cell death caused by the treatment with xanthine/xanthine oxidase generating oxidative damage and cell death was analyzed. […]
# [2] = system: human neuroblastoma SK-N-MC cells; experiment: Inhibition of camptothecin-induced apoptosis by flow cytometry (sub-G1); format: cell-based; conditions: 50 μM camptothecin
# Method: as §1
# The inhibition caused by compound NST0037 against apoptosis (programmed cell death) caused by treatment with camptothecin which inhibits the enzyme Topoisomerase I, which prevents DNA duplication and triggers apoptotic cell death, was analyzed. These cells, not exceeding 15 passages, were seeded on 6-well plates treated for adherent cells with a cell concentration of 8×10^5 cells/well and 7×10^5 cells/well for the assay with pretreatment; 2 wells of the plate were seeded for each condition of the assay.
# After 24 hours of cell incubation at 37° C. and 5% CO2, the cell treatments were performed with 2 ml of total volume for the following conditions: • Control: culture medium (medium) • Camptothecin: medium plus camptothecin 50 μM. • Camptothecin plus Z-VAD-fmk: medium plus 50 μM camptothecin plus 50 μM Z-VAD-fmk, as positive inhibition control. • Camptothecin plus NST0037: medium plus 50 μM camptothecin plus NST0037 at 10, 40 or 100 μM.
# In the assay with pretreatment, the cells were previously treated with 40 μM of NST0037, 100 μM of mevalonate or both together for 24 hours and then they were treated with 50 μM camptothecin, the rest of the procedure was similar to the assay without pretreatment.
# The cells were incubated (at 37° C. and 5% CO2) with these treatments for 6 hours, after which time they were collected along with their culture medium and centrifuged at 300×g for 5 minutes. The medium was removed, a washing was performed with PBS and the cells were fixed for 2 minutes with 500 μl of 70% ethanol at −20° C. Once fixed, they were centrifuged at 400×g for 5 minutes, washed with PBS and 0.05 mg/ml propidium iodide, diluted in cycling buffer (0.1% sodium citrate, 0.3% Nonidet P-40 and 0.02 mg/ml RNase) were added and they were incubated for 1 hour at 37° C. After this time they were analyzed by flow cytometry, comparing the fluorescence of propidium iodide against the amount of DNA. The percentage of apoptosis was measured on the sub-G1 region of each of the conditions.
smiles,measurement,setting,value
"CCC(CC)C(=O)O[C@H]1C[C@@H](C)C=C2C=C[C@H](C)[C@H](CC[C@@H]3C[C@@H](O)CC(=O)O3)[C@H]21 [NST0037, (1S,2S,6R,8S,8aR)-1,2,6,7,8,8a-hexahydro-3,7-dimethyl-8-[2-[(2R,4R)-tetrahydro-4-hydroxy-6-oxo-2H-pyran-2-yl]ethyl]-1-naphthalenyl-2-ethyl-butyrate]",maximum protection against death caused by XXO,"[1]; 20 μM NST0037, 10 μM xanthine/60 mU/mL xanthine oxidase, 22 h",78%
same,protection against death caused by XXO,[1]; 40 μM NST0037 (Example 14),57%
same,maximum protection (inhibition of apoptosis caused by camptothecin),"[2]; 40 and 100 μM NST0037, 6 h, no pretreatment",18%
same,percentage of protection (inhibition of apoptosis) with pretreatment,[2]; 24 h pretreatment with 40 μM NST0037,up to 45%
